Assay results: patent US11173151B2, “Substituted triazole derivatives and uses thereof” (BAYER AKTIENGESELLSCHAFT, priority 2017, dated 2021)
Read-outs that look alike come from different tables or passages of the source.

Assays:
human V1a receptor = biological target: T1, human V1a receptor (Homo sapiens, UniProt P37288); test: Cellular in vitro assay for determining vasopressin receptor activity, V1a receptor cell line (CHO, aequorin luminescence); type: cell-based; conditions: for IC50: CHO cell line transfected with human V1a receptor, [Arg]-vasopressin at EC50 concentration, read-out: IC50 hV1a; for ratio IC50 hV2/hV1a: selectivity ratio IC50 hV2 / IC50 hV1a
T1 construct: expressed in transfected cells; host or cells: CHO K1 (ATCC), also stably transfected with a modified aequorin
T1 sequence (P37288 whole entry): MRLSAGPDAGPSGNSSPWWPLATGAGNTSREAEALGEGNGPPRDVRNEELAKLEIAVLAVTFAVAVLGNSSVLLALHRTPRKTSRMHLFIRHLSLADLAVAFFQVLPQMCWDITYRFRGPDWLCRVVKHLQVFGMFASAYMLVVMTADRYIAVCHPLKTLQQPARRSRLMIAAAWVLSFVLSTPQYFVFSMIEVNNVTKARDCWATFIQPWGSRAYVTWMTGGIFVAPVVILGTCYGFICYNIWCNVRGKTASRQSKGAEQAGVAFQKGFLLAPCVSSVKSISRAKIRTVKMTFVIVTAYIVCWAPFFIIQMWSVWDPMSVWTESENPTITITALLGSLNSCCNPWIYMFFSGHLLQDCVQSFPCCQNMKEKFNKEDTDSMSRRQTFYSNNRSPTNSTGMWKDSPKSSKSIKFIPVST
Method in brief: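 Cells were plated the day before in medium containing 5 μg/ml coelenterazine and kept at 37° C. Compounds at various concentrations were then added for 10 minutes. Next, [Arg]-vasopressin at EC50 was applied and light output recorded at once, yielding IC50.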

human V2 receptor = biological target: T2, human V2 receptor (Homo sapiens, UniProt P30518); test: Cellular in vitro assay for determining vasopressin receptor activity, V2 receptor cell line (CHO, CRE-luciferase); type: cell-based; conditions: CHO cell line transfected with human V2 receptor, [Arg8]-vasopressin at EC50 concentration, read-out: IC50 hV2
T2 construct: expressed in transfected cells; host or cells: CHO K1 (ATCC) expressing firefly luciferase under a CRE-responsive promoter
T2 sequence (P30518 whole entry): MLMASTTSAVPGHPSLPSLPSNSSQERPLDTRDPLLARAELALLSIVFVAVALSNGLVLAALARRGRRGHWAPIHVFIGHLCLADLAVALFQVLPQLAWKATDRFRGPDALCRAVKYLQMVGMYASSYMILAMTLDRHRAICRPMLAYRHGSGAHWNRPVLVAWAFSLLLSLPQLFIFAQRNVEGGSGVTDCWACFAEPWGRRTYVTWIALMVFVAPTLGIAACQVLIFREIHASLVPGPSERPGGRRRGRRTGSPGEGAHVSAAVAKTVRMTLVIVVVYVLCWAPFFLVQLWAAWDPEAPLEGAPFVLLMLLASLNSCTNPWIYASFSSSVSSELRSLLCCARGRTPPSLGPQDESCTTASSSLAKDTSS

Row | SMILES | IC50 (human V1a receptor) [nM] | ratio IC50 hV2/hV1a (human V1a receptor) | IC50 (human V2 receptor; 3 hours) [nM] | IC50 (human V2 receptor) [nM]
1 | O=C(NC1CC(F)(F)C1)c1cccc(Cl)c1-n1cnc(Cn2nc(-c3ccc(Cl)cc3)n(C[C@H](O)C(F)(F)F)c2=O)n1 [Example 376, 3-Chloro-2-[3-({3-(4-chlorophenyl)-5-oxo-4-[(2S)-3,3,3-trifluoro-2-hydroxypropyl]-4,5-dihydro-1H-1,2,4-triazol-1-yl}methyl)-1H-1,2,4-triazol-1-yl]-N-(3,3-difluorocyclobutyl)benzamide] | 73.5 | 7.8 | 570 | –
2 | O=C(c1cccc(Cl)c1-n1cnc(Cn2nc(-c3ccc(Cl)cc3)n(C[C@H](O)C(F)(F)F)c2=O)n1)N1CCOCC1 [Example 382, 2-({1-[2-Chloro-6-(morpholin-4-ylcarbonyl)phenyl]-1H-1,2,4-triazol-3-yl}methyl)-5-(4-chlorophenyl)-4-[(2S)-3,3,3-trifluoro-2-hydroxypropyl]-2,4-dihydro-3H-1,2,4-triazol-3-one] | 78 | 80.1 | 6250 | –
3 | O=C(c1cccc(Cl)c1-n1cnc(Cn2nc(-c3ccc(Cl)cc3)n(C[C@H](O)C(F)(F)F)c2=O)n1)N1CCC[C@H]1C(F)(F)F [Example 383, 5-(4-Chlorophenyl)-2-{[1-(2-chloro-6-{[(2S)-2-(trifluoromethyl)pyrrolidin-1-yl]carbonyl}phenyl)-1H-1,2,4-triazol-3-yl]methyl}-4-[(2S)-3,3,3-trifluoro-2-hydroxypropyl]-2,4-dihydro-3H-1,2,4-triazol-3-one] | 435 | 17.8 | 7750 | –
4 | O=C(c1cccc(Cl)c1-n1cnc(Cn2nc(-c3ccc(Cl)cc3)n(C[C@H](O)C(F)(F)F)c2=O)n1)N1CCC[C@@H]1C(F)(F)F [Example 384, 5-(4-Chlorophenyl)-2-{[1-(2-chloro-6-{[(2R)-2-(trifluoromethyl)pyrrolidin-1-yl]carbonyl}phenyl)-1H-1,2,4-triazol-3-yl]methyl}-4-[(2S)-3,3,3-trifluoro-2-hydroxypropyl]-2,4-dihydro-3H-1,2,4-triazol-3-one] | 111 | 17.9 | 2000 | –
5 | O=C(c1cccc(Cl)c1-n1cnc(Cn2nc(-c3ccc(Cl)cc3)n(C[C@H](O)C(F)(F)F)c2=O)n1)N1CCS(=O)(=O)CC1 [Example 385, 2-[(1-{2-Chloro-6-[(1,1-dioxidothiomorpholin-4-yl)carbonyl]phenyl}-1H-1,2,4-triazol-3-yl)methyl]-5-(4-chlorophenyl)-4-[(2S)-3,3,3-trifluoro-2-hydroxypropyl]-2,4-dihydro-3H-1,2,4-triazol-3-one] | 435 | 22.0 | 9550 | –
6 | CN(CC1CC1)C(=O)c1cccc(Cl)c1-n1cnc(Cn2nc(-c3ccc(Cl)cc3)n(C[C@H](O)C(F)(F)F)c2=O)n1 [Example 387, 3-Chloro-2-[3-({3-(4-chlorophenyl)-5-oxo-4-[(2S)-3,3,3-trifluoro-2-hydroxypropyl]-4,5-dihydro-1H-1,2,4-triazol-1-yl}methyl)-1H-1,2,4-triazol-1-yl]-N-(cyclopropylmethyl)-N-methylbenzamide] | 92.5 | 36.8 | 3400 | –
7 | O=C(NCC1CC1)c1cccc(Cl)c1-n1cnc(Cn2nc(-c3ccc(Cl)cc3)n(C[C@@H](O)C(F)(F)F)c2=O)n1 [Example 394, 3-Chloro-2-[3-({3-(4-chlorophenyl)-5-oxo-4-[(2R)-3,3,3-trifluoro-2-hydroxypropyl]-4,5-dihydro-1H-1,2,4-triazol-1-yl}methyl)-1H-1,2,4-triazol-1-yl]-N-(cyclopropylmethyl)benzamide] | 295 | 14.9 | 4400 | –
8 | NC(=O)[C@@H]1CC(F)(F)CN1C(=O)c1cccc(Cl)c1-n1cnc(Cn2nc(-c3ccc(Cl)cc3)n(C[C@@H](O)C(F)(F)F)c2=O)n1 [Example 396, 1-{3-Chloro-2-[3-({3-(4-chlorophenyl)-5-oxo-4-[(2R)-3,3,3-trifluoro-2-hydroxypropyl]-4,5-dihydro-1H-1,2,4-triazol-1-yl}methyl)-1H-1,2,4-triazol-1-yl]benzoyl}-4,4-difluoro-L-prolinamide] | 301 | 106.3 | 32000 | –
9 | O=C(c1cccc(Cl)c1-n1cnc(Cn2nc(-c3ccc(Cl)cc3)n(C[C@@H](O)C(F)(F)F)c2=O)n1)N1CCC(F)(F)C1 [Example 398, 2-[(1-{2-Chloro-6-[(3,3-difluoropyrrolidin-1-yl)carbonyl]phenyl}-1H-1,2,4-triazol-3-yl)methyl]-5-(4-chlorophenyl)-4-[(2R)-3,3,3-trifluoro-2-hydroxypropyl]-2,4-dihydro-3H-1,2,4-triazol-3-one] | 440 | 50.0 | – | 22000

Compounds with a lower IC50 (human V1a receptor), results first:

Row | IC50 (human V1a receptor) [nM] | ratio IC50 hV2/hV1a (human V1a receptor) | IC50 (human V2 receptor; 3 hours) [nM] | IC50 (human V2 receptor) [nM] | SMILES
10 | 17 | 132.4 | 2250 | – | O=C(c1cccc(Cl)c1-n1cnc(Cn2nc(-c3ccc(Cl)cc3)n(C[C@H](O)C(F)(F)F)c2=O)n1)N1CCCCC1 [Example 381, 5-(4-Chlorophenyl)-2-({1-[2-chloro-6-(piperidin-1-ylcarbonyl)phenyl]-1H-1,2,4-triazol-3-yl}methyl)-4-[(2S)-3,3,3-trifluoro-2-hydroxypropyl]-2,4-dihydro-3H-1,2,4-triazol-3-one]
11 | 7.15 | 216.8 | 1550 | – | CC1(NC(=O)c2cccc(Cl)c2-n2cnc(Cn3nc(-c4ccc(Cl)cc4)n(C[C@H](O)C(F)(F)F)c3=O)n2)CC1 [Example 388, 3-Chloro-2-[3-({3-(4-chlorophenyl)-5-oxo-4-[(2S)-3,3,3-trifluoro-2-hydroxypropyl]-4,5-dihydro-1H-1,2,4-triazol-1-yl}methyl)-1H-1,2,4-triazol-1-yl]-N-(1-methylcyclopropyl)benzamide]
12 | 52 | 65.4 | 3400 | – | NC(=O)[C@H]1CC(F)(F)CN1C(=O)c1cccc(Cl)c1-n1cnc(Cn2nc(-c3ccc(Cl)cc3)n(C[C@H](O)C(F)(F)F)c2=O)n1 [Example 391, 1-{3-Chloro-2-[3-({3-(4-chlorophenyl)-5-oxo-4-[(2S)-3,3,3-trifluoro-2-hydroxypropyl]-4,5-dihydro-1H-1,2,4-triazol-1-yl}methyl)-1H-1,2,4-triazol-1-yl]benzoyl}-4,4-difluoro-D-prolinamide]
13 | 22.5 | 12.4 | 280 | – | O=C(NCCC(F)(F)F)c1cccc(Cl)c1-n1cnc(Cn2nc(-c3ccc(Cl)cc3)n(C[C@H](O)C(F)(F)F)c2=O)n1 [Example 392, 3-Chloro-2-[3-({3-(4-chlorophenyl)-5-oxo-4-[(2S)-3,3,3-trifluoro-2-hydroxypropyl]-4,5-dihydro-1H-1,2,4-triazol-1-yl}methyl)-1H-1,2,4-triazol-1-yl]-N-(3,3,3-trifluoropropyl)benzamide]
14 | 16.5 | 369.7 | 6100 | – | O=C(NC1CC1)c1cccc(Cl)c1-n1cnc(Cn2nc(-c3ccc(Cl)cc3)n(C[C@@H](O)C(F)(F)F)c2=O)n1 [Example 393, 3-Chloro-2-[3-({3-(4-chlorophenyl)-5-oxo-4-[(2R)-3,3,3-trifluoro-2-hydroxypropyl]-4,5-dihydro-1H-1,2,4-triazol-1-yl}methyl)-1H-1,2,4-triazol-1-yl]-N-cyclopropylbenzamide]
